These are literature values, as cited in US20170106110A1, “ALLERGEN REDUCING COMPOSITION, SPRAY AGENT INCLUDING THE SAME AND SURFACE TREATMENT AGENT INCLUDING THE SAME, ALLERGEN REDUCING METHOD, ALLERGEN REDUCING TEXTILE STRUCTURE AND ALLERGEN REDUCING ARCHITECTURAL INTERIOR MATERIAL” (SC ENVIRONMENTAL SCIENCE CO., LTD., priority 2014, published 2017).

For the data set the following is noted: rat.

zinc gluconate: the “value of acute oral toxicity” value is on record as “exceeds 5,000 mg/kg”.
